Assay results reported in PubChem BioAssay AID2060498 (Molecular Pharmacology Branch, DTP, NCI, 2025).

Test system: 171881-019-R-J1-PDC tumor spheroids, viability
Test: Anticancer human tumor 171881-019-R-J1-PDC patient-derived invasive breast carcinoma cell line growth inhibition [GQUAD]
Conditions: spheroids with HUVEC and MSC; for IC50: curve of first compound; for viability, T/C: stronger effect = lower value
Text: DNA G-quadruplex Stabilizer Agents in Combinations in Complex Spheroids
A high-throughput screen of multi-cell type tumor spheroids was designed to identify active combinations of DNA G-quadruplex stabilizer agents and targeted small molecules. Complex spheroids include a stromal component modeled by human endothelial cells (HUVEC) and fibroblasts modeled by human mesenchymal stem cells (MSCs). The concentration ranges selected for each drug and investigational agent were based upon clinically achievable concentrations if the clinical Cmax of the agent was known.
Compounds. The drugs and investigational agents: pidnarulex (CX-5461; NSC782164), APTO-253 (NSC789042), BRACO-19 (NSC847499), peposertib (NSC802822), ceralasertib (NSC780249), elimusertib (NSC800525), camonsertib (NSC841442), AZD-1390 (NSC803789), olaparib (NSC753686), talazoparib (NSC767125), ART-558 (NSC835418), sotorasib (NSC818433), MRTX-1133 (NSC836407), SN-38 (NSC673596), topotecan (NSC609699), etoposide (NSC141540), doxorubicin (NSC123127), gemcitabine (NSC613327), 5-fluorouracil (NSC19893), paclitaxel (NSC125973), vemurafenib (NSC761431), panobinostat (NSC761190), R-306465 (JNJ-16241199; NSC773264), adavosertib (NSC754352), TP-3654 (NSC805149), carboplatin (NSC241240), KSQ-4279 (NSC840948), and staurosporine (NSC755774) were obtained from the National Cancer Institute (NCI) Developmental Therapeutics Program Chemical Repository (34). The FDA-approved anticancer drug set is available from the NCI Developmental Therapeutics Program. […] The stock solutions were prepared in dimethyl sulfoxide (DMSO, Sigma-Aldrich, St. Louis, MO, cat. D2650) at 800-fold the tested concentration and stored at -70 degrees C prior to their use. All drugs and investigational agents were tested over a range starting from a high concentration at or near the clinical Cmax and decreasing in half-log increments. If the clinical Cmax for an agent had not been determined, the highest concentration tested was 10 microM.
2.3 Cell Culture. All cells were maintained in an incubator at 37 degrees C and 5% CO2 with 95% humidity. The PDC lines were cultured according to standard operating procedures established by the NCI PDMR. All PDCs were thawed and cultured in Matrigel-coated flasks prepared with a working solution of 1X Ham's F-12 nutrient mix, without supplementation (Invitrogen, cat. 11765054), 100 U/mL penicillin-streptomycin (Invitrogen, cat. 15140122), and 2.5% Matrigel (Corning Inc., cat. 354248) for the first three passages. The 857933-349-R-J2-PDC line was cultured in 6C/Colon 1B media, which includes advanced DMEM/F-12 (Thermo Fisher Scientific, cat. 12634028), 10 mM HEPES (Thermo Fisher Scientific, cat. 15630080), 1X GlutaMAX supplement (Thermo Fisher Scientific, cat. 35050061), 0.1 mg/mL primocin (InvivoGen, cat. ant-pm-2), 10% defined fetal bovine serum, heat inactivated (HyClone Laboratories Inc., cat. SH30070.03HI), 50% L-WRN conditioned media (ATCC, cat. CRL-3276), 1.25 mM N-Acetyl-L-cysteine (Sigma-Aldrich, cat. A9165), 10 mM nicotinamide (Sigma-Aldrich, cat. N0636), 1X B-27 supplement (Thermo Fisher Scientific, cat. 17504044), 1X N-2 supplement (Thermo Fisher Scientific, cat. 17502048), 10 microM Y-27632 dihydrochloride (Tocris Bioscience, cat. 1254), and 50 ng/mL human EGF recombinant protein (Thermo Fisher Scientific, cat. PHG0311). The 485176-168-R4-J1-PDC line was cultured in Panc media, which includes all 6C/Colon 1B media components plus 100 ng/mL human FGF-10 (Thermo Fisher Scientific, cat. 100-26), 500 nM SB-431542 (Selleckchem, cat. S1067), and gastrin (Tocris, cat. 3006).
[…]
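Also: spheroids exposed to compounds for 7 days.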
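For viability, T/C in this document: 100% = DMSO vehicle control viability.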

Compound `CC[C@@]1(O)C(=O)OCc2c1cc1n(c2=O)Cc2cc3c(CN(C)C)c(O)ccc3nc2-1` + Cc1[nH]c2ccc(F)cc2c1-c1nc2c3cccnc3c3ncccc3c2[nH]1 has an IC50 (second compound 0.0316 µM) of 96.1 nM, an IC50 (second compound 0.1 µM) of 122 nM and an IC50 (second compound 0.316 µM) of 142 nM. The IC50 (second compound 1 µM) was 119 nM, the IC50 (second compound 3.16 µM) was less than 0.999 nM and the IC50 (second compound 10 µM) was less than 0.999 nM. The viability, T/C (second compound 0.0316 µM, first compound 0.000999 µM) was 97%, the viability, T/C (second compound 0.0316 µM, first compound 0.00316 µM) was 86.9% and the viability, T/C (second compound 0.0316 µM, first compound 0.00999 µM) was 97.9%. For the same compound, the viability, T/C (second compound 0.0316 µM, first compound 0.0316 µM) was 87.1%, the viability, T/C (second compound 0.0316 µM, first compound 0.0999 µM) was 48.8% and the viability, T/C (second compound 0.0316 µM, first compound 0.316 µM) was 37.8%. It also gave a viability, T/C (second compound 0.1 µM, first compound 0.000999 µM) of 108%, a viability, T/C (second compound 0.1 µM, first compound 0.00316 µM) of 99.1% and a viability, T/C (second compound 0.1 µM, first compound 0.00999 µM) of 93.1%. It also gave a viability, T/C (second compound 0.1 µM, first compound 0.0316 µM) of 87.1%, a viability, T/C (second compound 0.1 µM, first compound 0.0999 µM) of 50.8% and a viability, T/C (second compound 0.1 µM, first compound 0.316 µM) of 39.7%. The viability, T/C (second compound 0.316 µM, first compound 0.000999 µM) was 101%, the viability, T/C (second compound 0.316 µM, first compound 0.00316 µM) was 104% and the viability, T/C (second compound 0.316 µM, first compound 0.00999 µM) was 90.5%. It also gave a viability, T/C (second compound 0.316 µM, first compound 0.0316 µM) of 82.8%, a viability, T/C (second compound 0.316 µM, first compound 0.0999 µM) of 53.9% and a viability, T/C (second compound 0.316 µM, first compound 0.316 µM) of 38.1%. It also gave a viability, T/C (second compound 1 µM, first compound 0.000999 µM) of 87.6%, a viability, T/C (second compound 1 µM, first compound 0.00316 µM) of 68% and a viability, T/C (second compound 1 µM, first compound 0.00999 µM) of 86%. It also gave a viability, T/C (second compound 1 µM, first compound 0.0316 µM) of 70.3%, a viability, T/C (second compound 1 µM, first compound 0.0999 µM) of 52.8% and a viability, T/C (second compound 1 µM, first compound 0.316 µM) of 37.7%. The viability, T/C (second compound 3.16 µM, first compound 0.000999 µM) was 21.7%, the viability, T/C (second compound 3.16 µM, first compound 0.00316 µM) was 17.7% and the viability, T/C (second compound 3.16 µM, first compound 0.00999 µM) was 22.7%. The viability, T/C (second compound 3.16 µM, first compound 0.0316 µM) was 24.3%, the viability, T/C (second compound 3.16 µM, first compound 0.0999 µM) was 22.9% and the viability, T/C (second compound 3.16 µM, first compound 0.316 µM) was 16.7%. It also gave a viability, T/C (second compound 10 µM, first compound 0.000999 µM) of 46.2%, a viability, T/C (second compound 10 µM, first compound 0.00316 µM) of 41.7% and a viability, T/C (second compound 10 µM, first compound 0.00999 µM) of 45.2%. For the same compound, the viability, T/C (second compound 10 µM, first compound 0.0316 µM) was 38.4%, the viability, T/C (second compound 10 µM, first compound 0.0999 µM) was 37.6% and the viability, T/C (second compound 10 µM, first compound 0.316 µM) was 20.7%.
